Read-outs that look alike come from different tables or passages of the source. One block for each molecule: values may come before it.
Assay: Simulated intestinal fluid (SIF) stability in the presence of various enzymes
Format: in vitro ADME
Details: for % Remaining of Initial: n = 1
Method: (§1) Studies were carried out in simulated intestinal fluid in the presence of various enzymes. Simulated intestinal fluid was prepared by dissolving 6.8 g of monobasic potassium phosphate in 1.0 L of water. Aliquots of this solution were taken and the pH was adjusted to 6.8. Individual enzymes were then spiked into aliquots for each experiment. A DMSO stock was first prepared for the test article. Aliquots of the DMSO solution were dosed into 700 μL of matrix, which had been pre-warmed to 37° C., at a final test article concentration of 1 μM. […] Samples were stored at 4° C. until the end of the experiment. After the final time point was sampled, the plate was mixed and then centrifuged at 3,000 rpm for 10 minutes. Calibration standards were prepared in matched matrix. […] Analytical conditions are outlined in Appendix 8-1.
as §1, with “10-1.” for “8-1.”
Studies were carried out in simulated intestinal fluid in the presence of various enzymes. Simulated intestinal fluid was prepared by dissolving 6.8 g of monobasic potassium phosphate in 1.0 L of water. Aliquots of this solution were taken and the pH was adjusted to 6.8. Individual enzymes were then spiked into aliquots for each experiment. A DMSO stock was first prepared for test article. Aliquots of the DMSO solution were dosed into 700 μL of matrix, which had been pre-warmed to 37° C., at a final test article concentration of 1 μM. […] Samples were stored at 4° C. until the end of experiment. After final time point was sampled, the plate was mixed and then centrifuged at 3,000 rpm for 10 minutes. Calibration standards were prepared in matched matrix. […] Analytical conditions are outlined in Appendix 13-1.
as §1, with “17-1.” for “8-1.”

[1] = SIF + Carboxypeptidase A, 0 min, 1 μM
[2] = SIF + Carboxypeptidase A, 15 min, 1 μM
[3] = SIF + Carboxypeptidase A, 30 min, 1 μM
[4] = SIF + Carboxypeptidase A, 60 min, 1 μM
[5] = SIF + Carboxypeptidase A, 120 min, 1 μM
[6] = SIF + Carboxypeptidase B, 0 min, 1 μM
[7] = SIF + Carboxypeptidase B, 15 min, 1 μM
[8] = SIF + Carboxypeptidase B, 30 min, 1 μM
[9] = SIF + Carboxypeptidase B, 60 min, 1 μM
[10] = SIF + Carboxypeptidase B, 120 min, 1 μM
[11] = SIF + Chymotrypsin, 0 min, 1 μM
[12] = SIF + Chymotrypsin, 15 min, 1 μM
[13] = SIF + Chymotrypsin, 30 min, 1 μM
[14] = SIF + Chymotrypsin, 60 min, 1 μM
[15] = SIF + Chymotrypsin, 120 min, 1 μM
[16] = SIF + Pancreatin, 120 min, 1 μM
[17] = simulated intestinal fluid with carboxypeptidase A, pH 6.8, SIF + Carboxypeptidase A, 1 μM, read-out: Half-life
[18] = simulated intestinal fluid with carboxypeptidase B, pH 6.8, SIF + Carboxypeptidase B, 1 μM, read-out: Half-life
[19] = simulated intestinal fluid with chymotrypsin, pH 6.8, SIF + Chymotrypsin, 1 μM, read-out: Half-life
[20] = simulated intestinal fluid with elastase, pH 6.8, SIF + Elastase, 1 μM, read-out: Half-life
[21] = simulated intestinal fluid with pancreatin, pH 6.8, SIF + Pancreatin, 1 μM, read-out: Half-life
[22] = simulated intestinal fluid with trypsin, pH 6.8, SIF + Trypsin, 1 μM, read-out: Half-life

% Remaining of Initial (n = 1) [1]: 100% | % Remaining of Initial (n = 1) [2]: 30% | % Remaining of Initial (n = 1) [3]: 10% | % Remaining of Initial (n = 1) [4]: 4.1% | % Remaining of Initial (n = 1) [5]: 3.9% | % Remaining of Initial (n = 1) [6]: 100% | % Remaining of Initial (n = 1) [7]: 33% | % Remaining of Initial (n = 1) [8]: 14% | % Remaining of Initial (n = 1) [9]: 5.7% | % Remaining of Initial (n = 1) [10]: 2.2% | % Remaining of Initial (n = 1) [11]: 100% | % Remaining of Initial (n = 1) [12]: 42% | % Remaining of Initial (n = 1) [13]: 23% | % Remaining of Initial (n = 1) [14]: 13% | % Remaining of Initial (n = 1) [15]: 15% | % Remaining of Initial (n = 1) (SIF + Elastase, 0 min, 1 μM): 100% | % Remaining of Initial (n = 1) (SIF + Elastase, 15 min, 1 μM): 44% | % Remaining of Initial (n = 1) (SIF + Elastase, 30 min, 1 μM): 14% | % Remaining of Initial (n = 1) (SIF + Elastase, 60 min, 1 μM): 3.8% | % Remaining of Initial (n = 1) (SIF + Elastase, 120 min, 1 μM): 3.5% | % Remaining of Initial (n = 1) (SIF + Pancreatin, 0 min, 1 μM): 100% | % Remaining of Initial (n = 1) (SIF + Pancreatin, 15 min, 1 μM): 40% | % Remaining of Initial (n = 1) (SIF + Pancreatin, 30 min, 1 μM): 19% | % Remaining of Initial (n = 1) (SIF + Pancreatin, 60 min, 1 μM): 6.5% | % Remaining of Initial (n = 1) [16]: 2.7% | % Remaining of Initial (n = 1) (SIF + Trypsin, 0 min, 1 μM): 100% | % Remaining of Initial (n = 1) (SIF + Trypsin, 15 min, 1 μM): 66% | % Remaining of Initial (n = 1) (SIF + Trypsin, 30 min, 1 μM): 44% | % Remaining of Initial (n = 1) (SIF + Trypsin, 60 min, 1 μM): 38% | % Remaining of Initial (n = 1) (SIF + Trypsin, 120 min, 1 μM): 33% | half-life at 1 μM [17]: 8.8 min | half-life at 1 μM [18]: 10 min | half-life at 1 μM [19]: 14 min | half-life at 1 μM [20]: 12 min | half-life at 1 μM [21]: 12 min | half-life at 1 μM [22]: 50 min
SMILES: CCCCCCCCCCCCCCCC(=O)NCCOC(=O)CCC(=O)OC[C@H]1O[C@@](CO)(O[C@H]2O[C@H](CO)[C@@H](O)[C@H](O)[C@H]2O)[C@@H](O)[C@@H]1O [Compound I-7]

% Remaining of Initial [1]: 100% | % Remaining of Initial [2]: 33% | % Remaining of Initial [3]: 8.7% | % Remaining of Initial [4]: <1.0% | % Remaining of Initial [5]: <1.0% | % Remaining of Initial [6]: 100% | % Remaining of Initial [7]: 30% | % Remaining of Initial [8]: 7.1% | % Remaining of Initial [9]: <1.0% | % Remaining of Initial [10]: <1.0% | % Remaining of Initial [11]: 100% | % Remaining of Initial [12]: 36% | % Remaining of Initial [13]: 8.7% | % Remaining of Initial [14]: <1.0% | % Remaining of Initial [15]: <1.0% | % Remaining of Initial (SIF + Elastase, 0 min, 1 μM): 100% | % Remaining of Initial (SIF + Elastase, 15 min, 1 μM): 38% | % Remaining of Initial (SIF + Elastase, 30 min, 1 μM): 17% | % Remaining of Initial (SIF + Elastase, 60 min, 1 μM): 16% | % Remaining of Initial (SIF + Elastase, 120 min, 1 μM): 17% | % Remaining of Initial (SIF + Trypsin, 0 min, 1 μM): 100% | % Remaining of Initial (SIF + Trypsin, 15 min, 1 μM): 52% | % Remaining of Initial (SIF + Trypsin, 30 min, 1 μM): 31% | % Remaining of Initial (SIF + Trypsin, 60 min, 1 μM): 28% | % Remaining of Initial (SIF + Trypsin, 120 min, 1 μM): 25% | half-life at 1 μM (simulated intestinal fluid with carboxypeptidase A, pH 6.8, SIF + Carboxypeptidase A, read-out: Half-life): < 15 min | half-life at 1 µM (simulated intestinal fluid with carboxypeptidase A, pH 6.8, SIF + Carboxypeptidase A, read-out: Half-life, calculated value in parentheses): 9.2 min | half-life at 1 µM (simulated intestinal fluid with carboxypeptidase B, pH 6.8, SIF + Carboxypeptidase B, read-out: Half-life): < 15 min | half-life at 1 µM (simulated intestinal fluid with carboxypeptidase B, pH 6.8, SIF + Carboxypeptidase B, read-out: Half-life, calculated value in parentheses): 8.5 min | half-life at 1 μM (simulated intestinal fluid with chymotrypsin, pH 6.8, SIF + Chymotrypsin, read-out: Half-life): < 15 min | half-life at 1 μM (simulated intestinal fluid with chymotrypsin, pH 6.8, SIF + Chymotrypsin, read-out: Half-life, calculated value in parentheses): 9.6 min | half-life at 1 μM (simulated intestinal fluid with elastase, pH 6.8, SIF + Elastase, read-out: Half-life): < 15 min | half-life at 1 µM (simulated intestinal fluid with elastase, pH 6.8, SIF + Elastase, read-out: Half-life, calculated value in parentheses): 12 min | half-life at 1 μM (simulated intestinal fluid with trypsin, pH 6.8, SIF + Trypsin, read-out: Half-life): 25 min
SMILES: CCCCCCCCCCCCCCCC(=O)NCCOC(=O)CCC(=O)OC(CO)CO [Compound I-8]

% Remaining of Initial (n = 1) [1]: 100% | % Remaining of Initial (n = 1) [2]: 43% | % Remaining of Initial (n = 1) [3]: 15% | % Remaining of Initial (n = 1) [4]: 10% | % Remaining of Initial (n = 1) [5]: 5.5% | % Remaining of Initial (n = 1) [6]: 100% | % Remaining of Initial (n = 1) [7]: 44% | % Remaining of Initial (n = 1) [8]: 14% | % Remaining of Initial (n = 1) [9]: 6.1% | % Remaining of Initial (n = 1) [10]: 4.7% | % Remaining of Initial (n = 1) [11]: 100% | % Remaining of Initial (n = 1) [12]: 45% | % Remaining of Initial (n = 1) [13]: 24% | % Remaining of Initial (n = 1) [14]: 11% | % Remaining of Initial (n = 1) [15]: 7.2% | % Remaining of Initial (n = 1) (SIF + Elastase, 0 min, 1 μM): 100% | % Remaining of Initial (n = 1) (SIF + Elastase, 15 min, 1 μM): 49% | % Remaining of Initial (n = 1) (SIF + Elastase, 30 min, 1 μM): 22% | % Remaining of Initial (n = 1) (SIF + Elastase, 60 min, 1 μM): 10% | % Remaining of Initial (n = 1) (SIF + Elastase, 120 min, 1 μM): 6.3% | % Remaining of Initial (n = 1) (SIF + Pancreatin, 0 min, 1 μM): 100% | % Remaining of Initial (n = 1) (SIF + Pancreatin, 15 min, 1 μM): 35% | % Remaining of Initial (n = 1) (SIF + Pancreatin, 30 min, 1 μM): 34% | % Remaining of Initial (n = 1) (SIF + Pancreatin, 60 min, 1 μM): 20% | % Remaining of Initial (n = 1) [16]: 13% | % Remaining of Initial (n = 1) (SIF + Trypsin, 0 min, 1 μM): 100% | % Remaining of Initial (n = 1) (SIF + Trypsin, 15 min, 1 μM): 67% | % Remaining of Initial (n = 1) (SIF + Trypsin, 30 min, 1 μM): 49% | % Remaining of Initial (n = 1) (SIF + Trypsin, 60 min, 1 μM): 22% | % Remaining of Initial (n = 1) (SIF + Trypsin, 120 min, 1 μM): 12% | half-life at 1 μM [17]: 12 min | half-life at 1 μM [18]: 12 min | half-life at 1 μM [19]: 14 min | half-life at 1 μM [20]: 15 min | half-life at 1 μM [21]: 17 min | half-life at 1 μM [22]: 29 min
SMILES: CCCCCCCCCCCCCCCC(=O)NCCOC(=O)CCC(=O)OCC(O)CO (stereo not shown) [Compound I-9]

Source: patent US11547681B2, “N-acylethanolamide derivatives and uses thereof” (ELIEM THERAPEUTICS, INC., priority 2016, dated 2023)
